Values of other authors in US9433581B2, “Poly(vinyl benzoate) nanoparticles for molecular delivery” (University of South Florida, priority 2010, dated 2016).

Details: octanol/water, reported in the literature

Log P | Molecule
5.43 | 5(6)-carboxyfluorescein
−3.45 | CCN(CC)c1ccc2cc(-c3nc4ccccc4s3)c(=O)oc2c1 [Coumarin-6, coumarin-6]
